{"source": "patent US20240016744A1", "about": "“NALTREXONE AND RISPERIDONE COMBINATION SUSTAINED-RELEASE COMPOSITION” (SHENZHEN SCIENCARE MEDICAL INDUSTRIES CO.,, priority 2020, published 2024)", "test_system": "methylamphetamine-induced behavioral sensitization (spontaneous activities of the mice)", "experiment": "Animal pharmacodynamic evaluation: methylamphetamine-induced behavioral sensitization, spontaneous activity", "type": "in vivo, SD mice", "conditions": "methylamphetamine 2 mg/kg i.p., no implant, from day 7; FIG. 9", "text": "All mice were bred under the same conditions. The product of the present disclosure was surgically implanted into each mouse in a model group before an experiment. Except implantation of the product of the present disclosure, other experimental conditions of a positive control group were the same as those of the model group. Mice in a negative control group were normally bred without undergoing experimental treatment. Behavioral differences among the model group, the positive control group, and the negative control group were observed during the experiment.\n36 SD mice weighing […], half male and half female, were taken. The mice were randomly divided into 3 groups: a positive control group, a negative control group, and a model group. The compound sustained-release preparation (prepared in Example 1) was implanted into the back of each mouse in the model group before administration, and a challenge experiment was carried out on the second day after surgery.\nDuring the formative period, methylamphetamine (2 mg/kg) was daily intraperitoneally injected into each mouse in the positive control group and the model group, an equal amount of normal saline was intraperitoneally injected into each mouse in the negative control group for 7 consecutive days. During the conversion period, the drug was withdrawn for 7 days without any treatment. […]", "data": [{"smiles": "CN[C@@H](C)Cc1ccccc1", "note": "[methylamphetamine]", "values": [{"measurement": "activities of the mice in the positive control group (behavioral sensitization)", "value": "significantly increased (P<0.05)"}]}]}
